Data taken from patent US20170355708A1, “POTASSIUM CHANNEL MODULATORS” (Cadent Therapeutics, Inc., priority 2016, published 2017).

biological target: T1, hSK2 channels (Homo sapiens, UniProt P0DP23+Q9H2S1); assay: Whole-cell patch-clamp recording of SK2 channel current (SC100); type: cell-based; settings: Stimulating Concentration required for increasing the baseline current by 100%; HEK293 cells expressing hSK2; Table 3
T1 construct: expressed in transfected cells; host or cells: HEK293
Description: The biological activity of certain compounds were determined as follows. The ionic current through small-conductance Ca^2+-activated K^+ channels (SK channels, subtype 2) is recorded using the whole-cell configuration of the patch-clamp technique in a classic patch-clamp set-up using HEK293 tissue culture cells expressing hSK2 channels as described in Kasumu et. al., Chemistry & Biology 19, 1340-1353, Oct. 26, 2012.
The SC100 value determined is defined as the Stimulating Concentration required for increasing the baseline current by 100%.

Question: With `Cc1cc(Nc2ccc(Cl)cc2)nc(-n2ccc(C(C)(C)O)n2)n1` [Compound 142, 2-(1-(4-((4-chlorophenyl)amino)-6-methylpyrimidin-2-yl)-1H-pyrazol-3-yl)propan-2-ol] as the molecule, how does the “SC100 uM” value read?
Answer: Its value is “++ (++ means 200 nM-1000 nM)”.

Question: Which “SC100 uM” value does the source give for `Cc1cc(C)n(-c2nc(Nc3ccc(Cl)cc3)cc(N[C@H](C)C(N)=O)n2)n1` (single isomer, unassigned) [Compound 123, (+)-2-((6-((4-chlorophenyl)amino)-2-(3,5-dimethyl-1H-pyrazol-1-yl)pyrimidin-4-yl)amino)propanamide] here?
Answer: The value was “++ (++ means 200 nM-1000 nM)”.

Question: How did the “SC100 uM” value turn out when `CC(C)(O)c1ccn(-c2nc(Nc3ccc(F)cc3)cc(N3CCOCC3)n2)n1` [Compound 148, 2-(1-(4-((4-fluorophenyl)amino)-6-morpholinopyrimidin-2-yl)-1H-pyrazol-3-yl)propan-2-ol] was run?
Answer: Its value is “+ (+ means >1 uM)”.

Question: Which “SC100 uM” value does the source give for `OCc1ccn(-c2nc(Nc3ccc(F)cc3)cc(N3CCOCC3)n2)n1` [Compound 156, (1-(4-((4-fluorophenyl)amino)-6-morpholinopyrimidin-2-yl)-1H-pyrazol-3-yl)methanol] here?
Answer: The value was “+ (+ means >1 uM)”.

Question: How did the “SC100 uM” value turn out when `Cc1cc(C)n(-c2nc(Nc3ccc(F)c(F)c3)cc(N3CC4(COC4)C3)n2)n1` [Compound 111, N-(3,4-difluorophenyl)-2-(3,5-dimethyl-1H-pyrazol-1-yl)-6-(2-oxa-6-azaspiro[3.3]heptan-6-yl)pyrimidin-4-amine] was run?
Answer: Its value is “+++ (+++ means <200 nM)”.

Question: Which “SC100 uM” value does the source give for `Cc1cn(-c2nc(Nc3ccc(F)cc3)cc(OC3COC3)n2)nc1CF` [Compound 163, 2-(3-(fluoromethyl)-4-methyl-1H-pyrazol-1-yl)-N-(4-fluorophenyl)-6-(oxetan-3-yloxy)pyrimidin-4-amine] here?
Answer: Its value is “++ (++ means 200 nM-1000 nM)”.

Question: Which “SC100 uM” value does the source give for `Cc1cc(C)n(-c2nc(Nc3ccc(F)cc3F)cc(N3CCN[C@@H](C(N)=O)C3)n2)n1` (single isomer, unassigned) [Compound 125, (−)-4-(6-((2,4-difluorophenyl)amino)-2-(3,5-dimethyl-1H-pyrazol-1-yl)pyrimidin-4-yl)piperazine-2-carboxamide] here?
Answer: The value was “++ (++ means 200 nM-1000 nM)”.

Question: For `CCn1cnc2c(-n3nc(C)cc3C)nc(Nc3ccc(F)c(F)c3)cc21` [Compound 120, N-(3,4-difluorophenyl)-4-(3,5-dimethyl-1H-pyrazol-1-yl)-1-ethyl-1H-imidazo[4,5-c]pyridin-6-amine], which “SC100 uM” value is on record?
Answer: Its value is “+ (+ means >1 uM)”.

Question: How did the “SC100 uM” value turn out when `Cc1cc(C)n(Cc2cc(Nc3ccc(F)cc3)nc(-n3ccc(CF)n3)c2)n1` [Compound 170, 4-((3,5-dimethyl-1H-pyrazol-1-yl)methyl)-6-(3-(fluoromethyl)-1H-pyrazol-1-yl)-N-(4-fluorophenyl)pyridin-2-amine] was run?
Answer: Its value is “++ (++ means 200 nM-1000 nM)”.

Question: For `CC(=O)NCc1cc(Nc2ccc(F)cc2)nc(-n2ccc(C(F)F)n2)c1` [Compound 160, N-((2-(3-(difluoromethyl)-1H-pyrazol-1-yl)-6-((4-fluorophenyl)amino)pyridin-4-yl)methyl)acetamide], which “SC100 uM” value is on record?
Answer: Its value is “+ (+ means >1 uM)”.

Question: How did the “SC100 uM” value turn out when `CC(=O)N1CCN(c2cc(Nc3ccc(F)c(F)c3)nc(-n3nc(C)cc3C)n2)CC1` [Compound 100, 1-(4-(6-((3,4-difluorophenyl)amino)-2-(3,5-dimethyl-1H-pyrazol-1-yl)pyrimidin-4-yl)piperazin-1-yl)ethan-1-one] was run?
Answer: Its value is “+++ (+++ means <200 nM)”.

Question: Which “SC100 uM” value does the source give for `Cc1cc(C)n(-c2cc(N3CC4(COC4)C3)nc(Nc3ccc(F)c(F)c3)n2)n1` [Compound 108, N-(3,4-difluorophenyl)-4-(3,5-dimethyl-1H-pyrazol-1-yl)-6-(2-oxa-6-azaspiro[3.3]heptan-6-yl)pyrimidin-2-amine] here?
Answer: Its value is “++ (++ means 200 nM-1000 nM)”.

Question: How did the “SC100 uM” value turn out when `Cc1cc(C)n(-c2nc(Nc3ccc(Cl)cc3)nc3c2ncn3C(C)C)n1` [Compound 118, N-(4-chlorophenyl)-6-(3,5-dimethyl-1H-pyrazol-1-yl)-9-isopropyl-9H-purin-2-amine] was run?
Answer: Its value is “+++ (+++ means <200 nM)”.

Question: With `FCc1ccn(-c2nc(Nc3ccc(F)cc3)cc(N3CCOCC3)n2)n1` [Compound 157, 2-(3-(fluoromethyl)-1H-pyrazol-1-yl)-N-(4-fluorophenyl)-6-morpholinopyrimidin-4-amine] as the molecule, how does the “SC100 uM” value read?
Answer: The value was “++ (++ means 200 nM-1000 nM)”.

Question: How did the “SC100 uM” value turn out when `Cc1cc(C)n(-c2cc(N3C[C@@H]4C[C@H]3CN4)nc(Nc3ccc(F)c(F)c3)n2)n1` (stereo in doubt) [Compound 109, 4-((1S,4S)-2,5-diazabicyclo[2.2.1]heptan-2-yl)-N-(3,4-difluorophenyl)-6-(3,5-dimethyl-1H-pyrazol-1-yl)pyrimidin-2-amine] was run?
Answer: The value was “++ (++ means 200 nM-1000 nM)”.

Question: How did the “SC100 uM” value turn out when `CC(=O)N1CCN(c2cc(-n3nc(C)cc3C)nc(Nc3ccc(F)c(F)c3)n2)CC1` [Compound 101, 1-(4-(2-((3,4-difluorophenyl)amino)-6-(3,5-dimethyl-1H-pyrazol-1-yl)pyrimidin-4-yl)piperazin-1-yl)ethan-1-one] was run?
Answer: The value was “+++ (+++ means <200 nM)”.

Question: Which “SC100 uM” value does the source give for `Cc1cc(C)n(-c2nc(Nc3ccc(Cl)cc3)cc(N[C@@H](C)C(N)=O)n2)n1` (single isomer, unassigned) [Compound 124, (−)-2-((6-((4-chlorophenyl)amino)-2-(3,5-dimethyl-1H-pyrazol-1-yl)pyrimidin-4-yl)amino)propanamide] here?
Answer: The value was “++ (++ means 200 nM-1000 nM)”.

Question: `Cc1cc(Nc2ccc(F)cc2)nc(-n2ccc(CO)n2)n1` [Compound 137, (1-(4-((4-fluorophenyl)amino)-6-methylpyrimidin-2-yl)-1H-pyrazol-3-yl)methanol] was tested. Which “SC100 uM” value did it give?
Answer: Its value is “+ (+ means >1 uM)”.

Question: Which “SC100 uM” value does the source give for `CC(=O)N1CCN(c2cc(-n3nc(C)cc3C)nc(Nc3ccc(F)cc3F)n2)CC1` [Compound 104, 1-(4-(2-((2,4-difluorophenyl)amino)-6-(3,5-dimethyl-1H-pyrazol-1-yl)pyrimidin-4-yl)piperazin-1-yl)ethan-1-one] here?
Answer: The value was “++ (++ means 200 nM-1000 nM)”.

Question: With `CC(F)c1ccn(-c2nc(Nc3ccc(Cl)cc3)cc(N3CC4(COC4)C3)n2)n1` (stereo not shown) [Compound 152, N-(4-chlorophenyl)-2-(3-(1-fluoroethyl)-1H-pyrazol-1-yl)-6-(2-oxa-6-azaspiro[3.3]heptan-6-yl)pyrimidin-4-amine] as the molecule, how does the “SC100 uM” value read?
Answer: Its value is “+++ (+++ means <200 nM)”.

Question: How did the “SC100 uM” value turn out when `Fc1ccc(Nc2cc(N3CCOCC3)nc(-n3ccc(C(F)F)n3)n2)cc1` [Compound 158, 2-(3-(difluoromethyl)-1H-pyrazol-1-yl)-N-(4-fluorophenyl)-6-morpholinopyrimidin-4-amine] was run?
Answer: The value was “+++ (+++ means <200 nM)”.

Question: With `CC(=O)NCc1cc(Nc2ccc(F)cc2)nc(-n2cc(C)c(CF)n2)c1` [Compound 161, N-((2-(3-(fluoromethyl)-4-methyl-1H-pyrazol-1-yl)-6-((4-fluorophenyl)amino)pyridin-4-yl)methyl)acetamide] as the molecule, how does the “SC100 uM” value read?
Answer: The value was “+++ (+++ means <200 nM)”.

Question: With `FCc1ccn(-c2nc(Nc3ccc(F)cc3)cc(OC3COC3)n2)n1` [Compound 162, 2-(3-(fluoromethyl)-1H-pyrazol-1-yl)-N-(4-fluorophenyl)-6-(oxetan-3-yloxy)pyrimidin-4-amine] as the molecule, how does the “SC100 uM” value read?
Answer: The value was “++ (++ means 200 nM-1000 nM)”.

Question: Which “SC100 uM” value does the source give for `Cc1cc(Nc2ccc(F)cc2)nc(-n2ccc(C(C)(C)O)n2)n1` [Compound 138, 2-(1-(4-((4-fluorophenyl)amino)-6-methylpyrimidin-2-yl)-1H-pyrazol-3-yl)propan-2-ol] here?
Answer: The value was “+ (+ means >1 uM)”.

Question: How did the “SC100 uM” value turn out when `Cc1cc(Nc2ccc(F)cc2)nc(-n2ccc(C(C)O)n2)n1` (stereo not shown) [Compound 140, 1-(1-(4-((4-fluorophenyl)amino)-6-methylpyrimidin-2-yl)-1H-pyrazol-3-yl)ethan-1-ol] was run?
Answer: The value was “+ (+ means >1 uM)”.

Question: Which “SC100 uM” value does the source give for `Cc1cc(C)n(-c2cc(N3C[C@@H]4C[C@H]3CN4)nc(Nc3ccc(F)cc3F)n2)n1` (stereo in doubt) [Compound 106, 4-((1S,4S)-2,5-diazabicyclo[2.2.1]heptan-2-yl)-N-(2,4-difluorophenyl)-6-(3,5-dimethyl-1H-pyrazol-1-yl)pyrimidin-2-amine] here?
Answer: Its value is “++ (++ means 200 nM-1000 nM)”.

Question: Which “SC100 uM” value does the source give for `Cc1cc(C)n(-c2nc(Nc3ccc(F)c(F)c3)cc(N3CCO[C@@H](CO)C3)n2)n1` (single isomer, unassigned) [Compound 121, (+)-(4-(6-((3,4-difluorophenyl)amino)-2-(3,5-dimethyl-1H-pyrazol-1-yl)pyrimidin-4-yl)morpholin-2-yl) methanol] here?
Answer: Its value is “+++ (+++ means <200 nM)”.

Question: Which “SC100 uM” value does the source give for `Cc1cc(C)n(-c2cc(N3CCNC(C(N)=O)C3)nc(Nc3ccc(F)c(F)c3)n2)n1` (stereo not shown) [Compound 116, 4-(2-((3,4-difluorophenyl)amino)-6-(3,5-dimethyl-1H-pyrazol-1-yl)pyrimidin-4-yl)piperazine-2-carboxamide] here?
Answer: Its value is “+++ (+++ means <200 nM)”.

same assay, conditions: Stimulating Concentration required for increasing the baseline current by 100%; HEK293 cells expressing hSK2; Table 4

Question: Which “SC100 (μM)” value does the source give for `CN(C)C1CN(c2cc(Nc3ccc(F)cc3)nc(-n3ccc(CF)n3)c2)C1` [NSSy5713] here?
Answer: The value was “+ (+ means >1 uM)”.

Question: With `Cc1cc(C)n(-c2cc(C(C)O)cc(Nc3ccc(F)cc3)n2)n1` (stereo not shown) [IN10964-084-P1, 1-(2-(3,5-dimethyl-1H-pyrazol-1-yl)-6-((4-fluorophenyl)amino)pyridin-4-yl)ethan-1-ol] as the molecule, how does the “SC100 (μM)” value read?
Answer: Its value is “+ (+ means >1 uM)”.

Question: `Cc1ccn(-c2nc(Nc3c(C)cccc3Cl)cc(C(C)O)n2)n1` (stereo not shown) [IN10864-081-P1] was tested. Which “SC100 (μM)” value did it give?
Answer: The value was “+ (+ means >1 uM)”.

Question: Which “SC100 (μM)” value does the source give for `Cc1cc(C)n(-c2nc(Nc3ccc(F)cc3)cc(C(C)O)n2)n1` (stereo not shown) [IN10973-006-P1] here?
Answer: Its value is “++ (++ means 200 nM-1000 nM)”.

Question: With `COc1cc(Nc2ccc(F)cc2F)nc(-c2nc(C)cs2)n1` [IN11059-023-P1] as the molecule, how does the “SC100 (μM)” value read?
Answer: Its value is “++ (++ means 200 nM-1000 nM)”.

Question: For `Cc1cc(Nc2ccc(F)cc2)nc(-c2nc(C)ccc2C)n1` [IN11237-001-P1, 2-(3,6-dimethylpyridin-2-yl)-N-(4-fluorophenyl)-6-methylpyrimidin-4-amine], which “SC100 (μM)” value is on record?
Answer: Its value is “+ (+ means >1 uM)”.
